Experiment [1] concerns Eschericia coli (E. Coli) strain ATCC25922. As to the kind of experiment: standard microdilution assay, minimum inhibitory concentration (MIC). Particulars: Escherichia coli; Table 2; strain ATCC25922. The experiment is classed as cell-based. How it is done: (§1) The in vitro activity of the compounds of the present disclosure can be determined. Antimicrobial testing is typically performed to determine the minimum inhibitory concentration (MIC). Minimum inhibitory concentrations (MICs) are determined by the microdilution method in a final volume of 100 μl according to protocols outlined by The Clinical and Laboratory Standards Institute (CLSI). Performance standards for reference strains are assessed within the same experimental design to maintain quality control. See, for example, Clinical Laboratory Standards Institute: Methods for dilution antimicrobial susceptibility tests for bacteria that grow aerobically M7-A8. Approved Standard-Eighth Edition. Wayne, Pa.: CLSI; December 2008; and Clinical Laboratory Standards Institute: Performance Standards for Antimicrobial Susceptibility Testing M100-S20; Approved Standard-Twentieth Edition. Wayne, Pa.: CLSI; June 2010. The compounds of the present disclosure were tested for antimicrobial activity. The Compounds 1-149 were run against Eschericia coli (E. Coli) strain ATCC25922 and against Staphylococcus aureus (S. aureus) 11540 strain using a standard microdilution assay to determine minimum inhibitory concentrations (MICs). […] It will be recognized by one skilled in the art that the compounds can be assessed against other bacterial organisms and that the presentation of data for activity against Eschericia coli and Staphylococcus aureus are illustrative and in no way is intended to limit the scope of the present disclosure. The compounds of the present disclosure can be assayed against a range of other microorganisms depending upon the performance activity desired to be gathered. Furthermore, the “+” and “−” representation and the selection of a cutoff value of 16 micrograms/mL is also illustrative and in no way is intended to limit the scope of the present disclosure.
A general note: Dilution methods test growth across graded concentrations, often in twofold steps.

Experiment [2] has as its system Staphylococcus aureus (S. aureus) 11540 strain. The description is as above. The experiment is classed as cell-based. The conditions noted are these: Table 2, 11540 strain. The protocol: as §1

Molecules are shown by their SMILES.

In general, MIC refers to the lowest concentration found to suppress growth. Low readings indicate greater potency, high ones weaker potency.

`C[C@H](N)CCCc1cc(Cl)c(F)c(-c2cc3cn(-c4ccc(CN[C@H](CCNC(=N)N)CNc5ccc(=O)[nH]n5)cc4)c(=O)nc3[nH]2)c1` [Compound 40]: the MIC in experiment [1] and in experiment [2] was ≤ 16 µg/mL in each case.

In the case of `Cc1nc(NCC[C@H]2CCC[C@H](c3ccc(-n4cc5cc(-c6cc(CCC[C@H](C)N)cc(Cl)c6F)[nH]c5nc4=O)cc3)N2)[nH]c1C` [Compound 41], the minimum inhibitory concentration (MIC) in experiment [1] and in experiment [2] was ≤ 16 µg/mL each time.

As for `Cc1nc(NCC[C@@H]2CCC[C@@H](c3ccc(-n4cc5cc(-c6cc(CCC[C@H](C)N)cc(OC(F)(F)F)c6F)[nH]c5nc4=O)cc3)N2)[nH]c1C` [Compound 42], the MIC in experiment [1] and in experiment [2] was ≤ 16 µg/mL throughout.

As for `C[C@H](N)CCCc1cc(Cl)c(F)c(-c2cc3cn(-c4ccc([C@@H]5CCC[C@@H](CCNc6nc7ccccc7[nH]6)N5)cc4)c(=O)nc3[nH]2)c1` [Compound 43], the MIC in experiment [1] and in experiment [2] was ≤ 16 µg/mL each time.

In the case of `C[C@H](N)CCCc1cc(Cl)c(F)c(-c2cc3cn(-c4ccc([C@H]5CCC[C@H](CCNc6nc7ccccc7[nH]6)N5)cc4)c(=O)nc3[nH]2)c1` [Compound 44], the MIC in experiment [1] and in experiment [2] was ≤ 16 µg/mL throughout.

In the case of `C[C@H](N)CCCc1cc(Cl)c(F)c(-c2cc3cn(-c4ccc(CN[C@H](CCNC(=N)N)Cc5ncon5)cc4)c(=O)nc3[nH]2)c1` [Compound 45], the MIC in experiment [1] and in experiment [2] was ≤ 16 µg/mL in each case.

In the case of `C[C@H](N)CCCc1cc(Cl)c(F)c(-c2cc3cn(-c4ccc(CN[C@H](CCNC(=N)N)CNc5cc(=O)cc[nH]5)cc4)c(=O)nc3[nH]2)c1` [Compound 46], the MIC in experiment [1] and in experiment [2] was ≤ 16 µg/mL in each case.

Consider `COc1ccnc(NC[C@@H](CCNC(=N)N)NCc2ccc(-n3cc4cc(-c5cc(CCC[C@H](C)N)cc(Cl)c5F)[nH]c4nc3=O)cc2)c1` [Compound 47], for which the MIC in experiment [1] and in experiment [2] was ≤ 16 µg/mL each time.

`C[C@H](N)CCCc1cc(Cl)c(F)c(-c2cc3cn(-c4ccc(CN[C@H](CCNC(=N)N)CNc5cnccn5)cc4)c(=O)nc3[nH]2)c1` [Compound 48]: the MIC in experiment [1] and in experiment [2] was ≤ 16 µg/mL each time.

As to `C[C@H](N)CCCc1cc(Cl)c(F)c(-c2cc3cn(-c4ccc(CN[C@H](CCNC(=N)N)CNc5nnn[nH]5)cc4)c(=O)nc3[nH]2)c1` [Compound 49], the MIC in experiment [1] and in experiment [2] was ≤ 16 µg/mL throughout.

As to `Cc1nc(NC[C@@H](CCNC(=N)N)NCc2ccc(-n3cc4cc(-c5cc(CCC[C@H](C)N)cc(Cl)c5F)[nH]c4nc3=O)cc2)sc1C` [Compound 50], the MIC in experiment [1] and in experiment [2] was ≤ 16 µg/mL throughout.

Turning to `Cc1nnc(NC[C@@H](CCNC(=N)N)NCc2ccc(-n3cc4cc(-c5cc(CCC[C@H](C)N)cc(Cl)c5F)[nH]c4nc3=O)cc2)o1` [Compound 51], the MIC in experiment [1] and in experiment [2] was ≤ 16 µg/mL throughout.

Take `Cc1nc(NCC[C@H]2CCC[C@H](c3ccc(-n4cc5cc(-c6cc(CCC[C@H](C)N)cc(OC(F)(F)F)c6F)[nH]c5nc4=O)cc3)N2)[nH]c1C` [Compound 53]: the MIC in experiment [1] and in experiment [2] was ≤ 16 µg/mL in each case.

For `C[C@H](N)CCCc1cc(Cl)c(F)c(-c2cc3cn(-c4ccc(CN[C@H](CCNC(=N)N)CNc5cccnc5)cc4)c(=O)nc3[nH]2)c1` [Compound 54], the MIC in experiment [1] and in experiment [2] was ≤ 16 µg/mL throughout.

For `Cc1nnc(NC[C@@H](CCNC(=N)N)NCc2ccc(-n3cc4cc(-c5cc(CCC[C@H](C)N)cc(Cl)c5F)[nH]c4nc3=O)cc2)[nH]1` [Compound 55], the MIC in experiment [1] and in experiment [2] was ≤ 16 µg/mL in each case.

As for `C[C@H](N)CCCc1cc(Cl)c(F)c(-c2cc3cn(-c4ccc(CN[C@H](CCNC(=N)N)CNc5nc6cnccc6o5)cc4)c(=O)nc3[nH]2)c1` [Compound 56], the MIC in experiment [1] and in experiment [2] was ≤ 16 µg/mL each time.

In the case of `C[C@H](N)CCCc1cc(Cl)c(F)c(-c2cc3cn(-c4ccc(CN[C@@H](CCN)CCNC(=N)N)cc4)c(=O)nc3[nH]2)c1` [Compound 57], the MIC in experiment [1] and in experiment [2] was ≤ 16 µg/mL each time.

Regarding `C[C@H](N)CCCc1cc(Cl)c(F)c(-c2cc3cn(-c4ccc(CN[C@H](CCNC(=N)N)CNc5ccncc5)cc4)c(=O)nc3[nH]2)c1` [Compound 58], the MIC in experiment [1] and in experiment [2] was ≤ 16 µg/mL each time.

`C[C@H](N)CCCc1cc(Cl)c(F)c(-c2cc3cn(-c4ccc(CO[C@H](CO)CCNC(=N)N)cc4)c(=O)nc3[nH]2)c1` [Compound 59]: the MIC in experiment [1] and in experiment [2] was ≤ 16 µg/mL each time.

As for `C[C@H](N)CCCc1cc(Cl)c(F)c(-c2cc3cn(-c4ccc(CO[C@@H](CCNC(=N)N)CNc5nccs5)cc4)c(=O)nc3[nH]2)c1` [Compound 60], the MIC in experiment [1] and in experiment [2] was ≤ 16 µg/mL in each case.

As for `C[C@H](N)CCCc1cc(Cl)c(F)c(-c2cc3cn(-c4ccc(CN[C@H](CCNC(=N)N)CC(N)=O)cc4)c(=O)nc3[nH]2)c1` [Compound 61], the MIC in experiment [1] and in experiment [2] was ≤ 16 µg/mL in each case.

For the molecule `C[C@H](N)CCCc1cc(Cl)c(F)c(-c2cc3cn(-c4ccc(CN[C@H](CCNC(=N)N)CNc5ccc[nH]c5=O)cc4)c(=O)nc3[nH]2)c1` [Compound 62], the MIC in experiment [1] and in experiment [2] was ≤ 16 µg/mL throughout.

With `COc1ncccc1NC[C@@H](CCNC(=N)N)NCc1ccc(-n2cc3cc(-c4cc(CCC[C@H](C)N)cc(Cl)c4F)[nH]c3nc2=O)cc1` [Compound 63], the MIC in experiment [1] and in experiment [2] was ≤ 16 µg/mL in each case.

On to `C[C@H](N)CCCc1cc(Cl)c(F)c(-c2cc3cn(-c4ccc(CO[C@H](CCNC(=N)N)CNC(=N)N)cc4)c(=O)nc3[nH]2)c1` [Compound 64], for which the MIC in experiment [1] and in experiment [2] was ≤ 16 µg/mL in each case.

Consider `Cc1ccncc1NC[C@@H](CCNC(=N)N)NCc1ccc(-n2cc3cc(-c4cc(CCC[C@H](C)N)cc(Cl)c4F)[nH]c3nc2=O)cc1` [Compound 65], for which the MIC in experiment [1] and in experiment [2] was ≤ 16 µg/mL each time.

Consider `C[C@H](N)CCCc1cc(Cl)c(F)c(-c2cc3cn(-c4ccc(CO[C@@H](C)CCNC(=N)N)cc4)c(=O)nc3[nH]2)c1` [Compound 66], for which the MIC in experiment [1] and in experiment [2] was ≤ 16 µg/mL in each case.

As for `CC(=N)NC[C@@H](CCNC(=N)N)NCc1ccc(-n2cc3cc(-c4cc(CCC[C@H](C)N)cc(Cl)c4F)[nH]c3nc2=O)cc1` [Compound 67], the MIC in experiment [1] and in experiment [2] was ≤ 16 µg/mL throughout.

With `C[C@H](N)CCCc1cc(Cl)c(F)c(-c2cc3cn(-c4ccc(CO[C@@H](CN)CCNC(=N)N)cc4)c(=O)nc3[nH]2)c1` [Compound 68], the MIC in experiment [1] and in experiment [2] was ≤ 16 µg/mL each time.

On to `C[C@H](N)CCCc1cc(Cl)c(F)c(-c2cc3cn(-c4ccc([C@@H]5CC[C@@H](CNC(=N)N)O5)cc4)c(=O)nc3[nH]2)c1` [Compound 69], for which the minimal inhibitory concentration (MIC) in experiment [1] and in experiment [2] was ≤ 16 µg/mL each time.

For the molecule `C[C@H](N)CCCc1cc(Cl)c(F)c(-c2cc3cn(-c4ccc([C@@H]5CC[C@H](CNC(=N)N)O5)cc4)c(=O)nc3[nH]2)c1` [Compound 70], the MIC in experiment [1] and in experiment [2] was ≤ 16 µg/mL in each case.

Consider `C[C@H](N)CCCc1cc(Cl)c(F)c(-c2cc3cn(-c4ccc(CO[C@@H](CO)CCNC(=N)N)cc4)c(=O)nc3[nH]2)c1` [Compound 71], for which the MIC in experiment [1] and in experiment [2] was ≤ 16 µg/mL throughout.
